Laboratory results: patent publication US8663669B2, “Pesticide treatment of soils or substrates with sulphur compounds” (Arkema France, priority 2002, dated 2014)

System: Sclerotium rolfsii
Experiment: Fungicidal efficacy by gassing, sclerotia
Format: cell-based
Parameters: Vitality score Nm (over 19 days): scale not given here; Reduction in viability RV / Reduction in vitality score RNm: unit not given here
Details: for Reduction in viability RV / Reduction in vitality score RNm: compared with the control
Experimental: These four organisms are the following:
Sclerotium rolfsii: a fungus which is also polyphagous and which is found, for example, on melon and courgette crops.
• Sclerotinia sclerotiorum: sclerotia • Sclerotium rolfsii: sclerotia • Rhizoctonia solani: colonized barley grains (mycelium and sclerotia) • Phytophthora cactorum: colonized millet grains (mycelium, sporangia and oospores) Preparation of the Fungi (24 h Before the Gassing Operation) 1. Preparation of the sclerotia of Sclerotinia sclerotiorum and of Sclerotium rolfsii: The fungi are cultured on malt agar medium until the sclerotia are obtained. The sclerotia are collected in a sterile manner and stored dry in empty Petri dishes until they are used. The sclerotia used for the trial are over 3 months old and are perfectly dormant. 2. Preparation of Phytophthora cactorum and of Rhizoctonia solani: The millet and barley used for the multiplication of the two fungi are moistened with ultrapure water by immersing for 24 hours. The grains are then slightly drained and then distributed into flasks and autoclaved (3 autoclavings at 110° C. for 20 minutes, 3 times at 24 hour intervals). Fragments of fungal culture are introduced into the flasks which are then incubated at 22° C.±2° C. (white light 18 h) until homogeneous colonization is obtained. The grains are then removed from the flasks in a sterile manner, dried in the sterile stream of a safety cabinet and then stored in the dry state until they are used. Conditions for Gassing and for Desorption
All the batches of fungi to be treated are placed for a few hours at the trial temperature (20° C.). Between 35 and 300 units of fungi or “propagules” (grains or sclerotia) are subjected to gassing during each trial.
Each fumigation chamber comprising to one or more species of fungi corresponds to a glass round-bottomed flask which is impervious to the gas and has a volume of 11 litres. Each round-bottomed flask is equipped with branch connections, one at the bottom for introducing the liquid DMDS, one at the top for collecting the air sample with a syringe.
Before introducing the gas, a partial vacuum (−500 mbar) is established in the round-bottomed flask with a vacuum pump. This makes it possible, on the one hand, to avoid the phenomenon of excess pressure due to the expansibility of DMDS in the round-bottomed flask and, on the other hand, to promote better homogeneity of the air-gas mixture in the first few seconds which follow injection. The DMDS (weighed accurately to the mg) is injected with a syringe, in liquid form, through the bottom branch connection, that is to say under the screen placed at half height of the round-bottomed flask and supporting the batches of fungi. After introducing the product, the internal pressure of the round-bottomed flask is re-established at atmospheric pressure. A magnetic stirrer operates during the entire duration of the treatment in order to properly homogenize the air-gas mixture.
At the end of the gassing, the cover for the round-bottomed flask is removed. One minute after this operation, the batches of fungi gassed are taken out and left in the open air for 15 minutes for desorption of the DMDS. They are then transferred into a Petri dish, the latter remaining open for 5 minutes to allow perfect desorption of the gas. […]

[1] = CT 1 050 g·h/m^3 (C 15.91 g/m^3, T 66 h)
[2] = CT 1 402 g·h/m^3 (C 21.24 g/m^3, T 66 h)
[3] = CT 1 450 g·h/m^3 (C 30.96 g/m^3, T 48 h)
[4] = CT 1 899 g·h/m^3 (C 28.77 g/m^3, T 66 h)
[5] = CT 1 981 g·h/m^3 (C 30.02 g/m^3, T 66 h)
[6] = CT 2 460 g·h/m^3 (C 51.25 g/m^3, T 48 h)
[7] = CT 2 471 g·h/m^3 (C 37.44 g/m^3, T 66 h)
[8] = CT 2 837 g·h/m^3 (C 42.98 g/m^3, T 66 h)
[9] = CT 2 974 g·h/m^3 (C 45.06 g/m^3, T 66 h)
[10] = CT 3 169 g·h/m^3 (C 48.02 g/m^3, T 66 h)
[11] = CT 3 467 g·h/m^3 (C 52.53 g/m^3, T 66 h)
[12] = CT 419 g·h/m^3 (C 17.46 g/m^3, T 24 h)
[13] = CT 625 g·h/m^3 (C 26.04 g/m^3, T 24 h)
[14] = CT 703 g·h/m^3 (C 29.29 g/m^3, T 24 h)
[15] = CT 907 g·h/m^3 (C 37.79 g/m^3, T 24 h)

## CSSC [DMDS, dimethyl disulphide]
[1]
  Viability V: 27.6%
  Vitality score Nm (over 19 days): 2.1
  Reduction in viability RV: 68.0
  Reduction in vitality score RNm: 71.1
[2]
  Viability V: 18.3%
  Vitality score Nm (over 19 days): 1.3
  Reduction in viability RV: 78.7
  Reduction in vitality score RNm: 81.8
[3]
  Viability V: 15.0%
  Vitality score Nm (over 19 days): 0.7
  Reduction in viability RV: 83.2
  Reduction in vitality score RNm: 91.8
[4]
  Viability V: 3.1%
  Vitality score Nm (over 19 days): 0.2
  Reduction in viability RV: 96.4
  Reduction in vitality score RNm: 96.8
[5]
  Viability V: 4.3%
  Vitality score Nm (over 19 days): 0.3
  Reduction in viability RV: 95.0
  Reduction in vitality score RNm: 95.1
[6]
  Viability V: 10.0%
  Vitality score Nm (over 19 days): 0.4
  Reduction in viability RV: 88.8
  Reduction in vitality score RNm: 94.7
[7]
  Viability V: 0%
  Vitality score Nm (over 19 days): 0
  Reduction in viability RV: 100
  Reduction in vitality score RNm: 100
[8]
  Viability V: 0%
  Vitality score Nm (over 19 days): 0
  Reduction in viability RV: 100
  Reduction in vitality score RNm: 100
[9]
  Viability V: 0%
  Vitality score Nm (over 19 days): 0
  Reduction in viability RV: 100
  Reduction in vitality score RNm: 100
[10]
  Viability V: 0%
  Vitality score Nm (over 19 days): 0
  Reduction in viability RV: 100
  Reduction in vitality score RNm: 100
[11]
  Viability V: 0%
  Vitality score Nm (over 19 days): 0
  Reduction in viability RV: 100
  Reduction in vitality score RNm: 100
[12]
  Viability V: 59.1%
  Vitality score Nm (over 19 days): 5.1
  Reduction in viability RV: 33.7
  Reduction in vitality score RNm: 40.9
[13]
  Viability V: 53.7%
  Vitality score Nm (over 19 days): 4.8
  Reduction in viability RV: 39.8
  Reduction in vitality score RNm: 44.3
[14]
  Viability V: 51.4%
  Vitality score Nm (over 19 days): 4.4
  Reduction in viability RV: 42.4
  Reduction in vitality score RNm: 48.7
[15]
  Viability V: 16.2%
  Vitality score Nm (over 19 days): 1.4
  Reduction in viability RV: 81.8
  Reduction in vitality score RNm: 84.2
